In the series the test system is rodent lifetime carcinogenesis bioassay, tumor incidence TD50. Put plainly: chronic cancer bioassays in animals – CPDB, compiled studies (AID 1745844).
Setting [1] is: rat, strain Sprague-Dawley, females, in feed, site: mammary tissue, wider than the gland, lesion: malignant tumor, dosed 104 weeks, study length 104 weeks.

Values joined by “and” are separate entries in the source; they are usually repeats but may differ in a detail not shown here. Equal values may be shown once. Active and inactive are the calls of the source. How the calls were made is not given here.

Consider `CC(C)C(C(=O)OC(C#N)c1cccc(Oc2ccccc2)c1)c1ccc(Cl)cc1` (stereo not drawn), for which the TD50 (commonly the dose at which the toxic effect under study appears in half of the subjects) reads like this: (mouse, strain B6C3F1, females, in feed, site: any site (literature study), lesion: one or several types, types not named, dosed 104 weeks, study length 104 weeks) 173 mg/kg/day (inactive); (mouse, strain B6C3F1, males, in feed, site: any site (literature study), lesion: one or several types, types not named, dosed 104 weeks, study length 104 weeks) 251 mg/kg/day (inactive); (mouse, strain C57BL/6, females, by gavage, site: all sites, lesion: lymphoma, dosed 104 weeks, study length 114 weeks) 384 mg/kg/day (inactive); (mouse, strain C57BL/6, females, by gavage, site: any site (literature study), lesion: one or several types, types not named, dosed 104 weeks, study length 114 weeks) 435 mg/kg/day (inactive); (mouse, strain C57BL/6, males, by gavage, site: all sites, lesion: lymphoma, dosed 104 weeks, study length 114 weeks) 659 mg/kg/day (inactive); (mouse, strain C57BL/6, males, by gavage, site: liver, lesion: liver-cell tumor, dosed 104 weeks, study length 114 weeks) 328 mg/kg/day (inactive). The TD50 was 58 mg/kg/day (inactive) (rat, strain Sprague-Dawley, females, in feed, site: mammary gland, lesion: fibroadenoma, dosed 104 weeks, study length 104 weeks); 2.55 mg/kg/day (inactive) (rat, strain Sprague-Dawley, females, in feed, site: mammary gland, lesion: fibroma, dosed 104 weeks, study length 104 weeks); 43.7 mg/kg/day (inactive) and 247 mg/kg/day (inactive) (rat, strain Sprague-Dawley, females, in feed, site: mammary tissue, wider than the gland, lesion: benign tumor, dosed 104 weeks, study length 104 weeks); 150 mg/kg/day (inactive) under setting [1]; 5.04 mg/kg/day (inactive) (rat, strain Sprague-Dawley, males, in feed, site: subcutaneous tissue, lesion: fibrosarcoma, dosed 104 weeks, study length 104 weeks); 266 mg/kg/day (inactive) (rat, strain Sprague-Dawley, males, in feed, site: subcutaneous tissue, lesion: spindle-cell sarcoma, dosed 104 weeks, study length 104 weeks). In addition, the carcinogen call reads like this: (mouse, strain B6C3F1, females, in feed, site: liver, lesion: hepatocellular adenoma, dosed 104 weeks, study length 104 weeks) “negative (inactive)”; (mouse, strain B6C3F1, females, in feed, site: liver, lesion: hepatocellular carcinoma, dosed 104 weeks, study length 104 weeks) “negative (inactive)”; (mouse, strain B6C3F1, females, in feed, site: lung, lesion: bronchiolar adenoma, dosed 104 weeks, study length 104 weeks) “negative (inactive)”; (mouse, strain B6C3F1, females, in feed, site: lung, lesion: bronchogenic carcinoma, dosed 104 weeks, study length 104 weeks) “negative (inactive)”; (mouse, strain B6C3F1, males, in feed, site: liver, lesion: hepatocellular adenoma, dosed 104 weeks, study length 104 weeks) “negative (inactive)”; (mouse, strain B6C3F1, males, in feed, site: liver, lesion: hepatocellular carcinoma, dosed 104 weeks, study length 104 weeks) “negative (inactive)”. The carcinogen call is “negative (inactive)” (mouse, strain B6C3F1, males, in feed, site: lung, lesion: bronchiolar adenoma, dosed 104 weeks, study length 104 weeks); “negative (inactive)” (mouse, strain B6C3F1, males, in feed, site: lung, lesion: bronchogenic carcinoma, dosed 104 weeks, study length 104 weeks); “negative (inactive)” (mouse, strain B6C3F1, males, in feed, site: skin, lesion: fibrosarcoma, dosed 104 weeks, study length 104 weeks); “negative (inactive)” (mouse, strain C57BL/6, females, by gavage, site: liver, lesion: liver-cell tumor, dosed 104 weeks, study length 114 weeks); “negative (inactive)” (mouse, strain C57BL/6, females, by gavage, site: lung, lesion: adenoma, dosed 104 weeks, study length 114 weeks); “negative (inactive)” (mouse, strain C57BL/6, males, by gavage, site: any site (literature study), lesion: one or several types, types not named, dosed 104 weeks, study length 114 weeks). Moreover, the carcinogen call reads like this: (mouse, strain C57BL/6, males, by gavage, site: lung, lesion: adenoma, dosed 104 weeks, study length 114 weeks) “negative (inactive)”; (rat, strain Sprague-Dawley, females, in feed, site: liver, lesion: round-cell sarcoma, dosed 104 weeks, study length 104 weeks) “negative (inactive)”; under setting [1], “negative (inactive)”.

Turning to `COc1cc(C=NNC(=O)c2ccncc2)ccc1O`, the TD50 (mouse, strain Not specified, both sexes, by gavage, site: any site (literature study), lesion: several types, types named in the paper, dosed 52 weeks, study length 52 weeks) is 27.4 mg/kg/day; the TD50 (mouse, strain Not specified, both sexes, by gavage, site: lung, lesion: adenocarcinoma, dosed 52 weeks, study length 52 weeks) is 45 mg/kg/day; the TD50 (mouse, strain Not specified, both sexes, by gavage, site: mammary gland, lesion: adenocarcinoma, dosed 52 weeks, study length 52 weeks) is 86.6 mg/kg/day.

As to `Cc1ccc2c(c1)C(N1CCN(C)CC1)=Nc1ccccc1S2`, the carcinogen call is, setting by setting: (rat, strain albino, females, in feed, site: mammary gland, lesion: fibroadenoma, dosed 78 weeks, study length 78 weeks) “negative (inactive)”; (rat, strain albino, males, in feed, site: pituitary gland, lesion: adenoma, dosed 78 weeks, study length 78 weeks) “negative (inactive)”.

As to `O[C@H]([C@H](O)[C@@H](O)CBr)[C@H](O)CBr`, the TD50 (mouse, strain Swiss, females, i.p., site: all sites, lesion: leukemia, dosed 26 weeks, study length 78 weeks) was found to be 46.3 mg/kg/day; the TD50 (mouse, strain Swiss, females, i.p., site: all sites, lesion: lymphosarcoma, dosed 26 weeks, study length 78 weeks) is 12.2 mg/kg/day; the TD50 (mouse, strain Swiss, females, i.p., site: any site (literature study), lesion: benign tumor, dosed 26 weeks, study length 78 weeks) came to 24.5 mg/kg/day; the TD50 (mouse, strain Swiss, females, i.p., site: any site (literature study), lesion: malignant tumor, dosed 26 weeks, study length 78 weeks) came out at 4.75 mg/kg/day; the TD50 (mouse, strain Swiss, females, i.p., site: any site (literature study), lesion: several types, types named in the paper, dosed 26 weeks, study length 78 weeks) is 2.45 mg/kg/day; the TD50 (mouse, strain Swiss, females, i.p., site: lung, lesion: several types, types named in the paper, dosed 26 weeks, study length 78 weeks) is 9.23 mg/kg/day. Besides, the TD50 by setting is: (mouse, strain Swiss, males, i.p., site: all sites, lesion: lymphatic leukemia, dosed 26 weeks, study length 78 weeks) 32.4 mg/kg/day; (mouse, strain Swiss, males, i.p., site: all sites, lesion: lymphosarcoma, dosed 26 weeks, study length 78 weeks) 17.6 mg/kg/day; (mouse, strain Swiss, males, i.p., site: any site (literature study), lesion: malignant tumor, dosed 26 weeks, study length 78 weeks) 15.2 mg/kg/day; (mouse, strain Swiss, males, i.p., site: any site (literature study), lesion: several types, types named in the paper, dosed 26 weeks, study length 78 weeks) 12.7 mg/kg/day; (mouse, strain Swiss, males, i.p., site: lung, lesion: several types, types named in the paper, dosed 26 weeks, study length 78 weeks) 13.5 mg/kg/day; (rat, strain Charles River CD (Sprague-Dawley), males, i.p., site: all sites, lesion: lymphosarcoma, dosed 26 weeks, study length 78 weeks) 182 mg/kg/day. Also, the TD50 is, setting by setting: (rat, strain Charles River CD (Sprague-Dawley), males, i.p., site: any site (literature study), lesion: malignant tumor, dosed 26 weeks, study length 78 weeks) 5.05 mg/kg/day; (rat, strain Charles River CD (Sprague-Dawley), males, i.p., site: any site (literature study), lesion: several types, types named in the paper, dosed 26 weeks, study length 78 weeks) 3.13 mg/kg/day; (rat, strain Charles River CD (Sprague-Dawley), males, i.p., site: mammary gland, lesion: squamous-cell carcinoma, dosed 26 weeks, study length 78 weeks) 182 mg/kg/day; (rat, strain Charles River CD (Sprague-Dawley), males, i.p., site: peritoneum, lesion: sarcoma, dosed 26 weeks, study length 78 weeks) 59.2 mg/kg/day; (rat, strain Charles River CD (Sprague-Dawley), males, i.p., site: skin, lesion: several types, types named in the paper, dosed 26 weeks, study length 78 weeks) 8.37 mg/kg/day.

For `CCCCN(CCCCO)N=O`, the TD50 was 0.169 mg/kg/day (rat, strain F344/DuCrj, males, in drinking water, site: liver, lesion: hyperplastic nodule, dosed 106 weeks, study length 112 weeks); 0.447 mg/kg/day (rat, strain F344/DuCrj, males, in drinking water, site: urinary bladder, lesion: papilloma, dosed 106 weeks, study length 112 weeks); 0.432 mg/kg/day (rat, strain F344/DuCrj, males, in drinking water, site: urinary bladder, lesion: transitional-cell carcinoma, dosed 106 weeks, study length 112 weeks); 0.386 mg/kg/day (rat, strain Fischer 344, males, in drinking water, site: testis, lesion: Leydig-cell tumor, dosed 78 weeks, study length 78 weeks); 0.175 mg/kg/day (rat, strain Fischer 344, males, in drinking water, site: urinary bladder, lesion: transitional-cell carcinoma, dosed 78 weeks, study length 78 weeks); 185 mg/kg/day (rat, strain Fischer 344, males, in feed, site: liver, lesion: hepatocellular carcinoma, dosed 103 weeks, study length 103 weeks). Moreover, the TD50 was 0.549 mg/kg/day (rat, strain Fischer 344, males, in feed, site: urinary bladder, lesion: carcinoma, dosed 103 weeks, study length 103 weeks); 166 mg/kg/day (rat, strain Sprague-Dawley, males, by gavage, site: lung, lesion: carcinoma, dosed 39 weeks, study length 74 weeks); 1.17 mg/kg/day (rat, strain Sprague-Dawley, males, by gavage, site: urinary bladder, lesion: several types, types named in the paper, dosed 39 weeks, study length 74 weeks); 271 mg/kg/day (rat, strain Sprague-Dawley, males, in drinking water, site: liver, lesion: liver-cell carcinoma, dosed 104 weeks, study length 104 weeks); 3.3 mg/kg/day (rat, strain Sprague-Dawley, males, in drinking water, site: urinary bladder, lesion: carcinoma, dosed 104 weeks, study length 104 weeks). Further, the carcinogen call (rat, strain Fischer 344, females, in feed, site: urinary bladder, lesion: carcinoma, dosed 103 weeks, study length 103 weeks) was “positive”.

Consider `CC(=O)Nc1ccc(S(=O)(=O)c2ccc(NC(C)=O)cc2)cc1`, for which the TD50 (rat, strain Buffalo, females, in feed, site: mammary gland, lesion: adenocarcinoma, dosed 43 weeks, study length 92 weeks) is 55.6 mg/kg/day.

With `FC(F)OC(Cl)C(F)(F)F` (stereo not drawn), the carcinogen call runs as follows: (mouse, strain Swiss Webster, females, inhaled, site: liver, lesion: basophil adenoma, dosed 78 weeks, study length 81 weeks) “negative (inactive)”; (mouse, strain Swiss Webster, males, inhaled, site: liver, lesion: basophil adenoma, dosed 78 weeks, study length 81 weeks) “negative (inactive)”; (mouse, strain Swiss Webster, males, inhaled, site: lung, lesion: alveolar-cell adenoma, dosed 78 weeks, study length 81 weeks) “negative (inactive)”. Moreover, the TD50 (mouse, strain Swiss Webster, females, inhaled, site: lung, lesion: alveolar-cell adenoma, dosed 78 weeks, study length 81 weeks) is 30000 mg/kg/day (inactive).

As for `CCCN(N)C=O`, the TD50 is, setting by setting: (mouse, strain Swiss albino, females, in drinking water, site: gall bladder, lesion: adenoma, dosed 75 weeks, study length 79 weeks) 497 mg/kg/day; (mouse, strain Swiss albino, females, in drinking water, site: gall bladder, lesion: several types, types named in the paper, dosed 75 weeks, study length 79 weeks) 444 mg/kg/day; (mouse, strain Swiss albino, females, in drinking water, site: liver, lesion: several types, types named in the paper, dosed 75 weeks, study length 79 weeks) 215 mg/kg/day; (mouse, strain Swiss albino, females, in drinking water, site: lung, lesion: several types, types named in the paper, dosed 75 weeks, study length 79 weeks) 8.74 mg/kg/day; (mouse, strain Swiss albino, males, in drinking water, site: lung, lesion: several types, types named in the paper, dosed 51 weeks, study length 61 weeks) 8.84 mg/kg/day; (mouse, strain Swiss albino, males, in drinking water, site: preputial gland, lesion: several types, types named in the paper, dosed 51 weeks, study length 61 weeks) 60.4 mg/kg/day. Moreover, the TD50 (mouse, strain Swiss albino, males, in drinking water, site: preputial gland, lesion: squamous-cell carcinoma, dosed 51 weeks, study length 61 weeks) was 75.7 mg/kg/day.
